The source of these data is ChEMBL document CHEMBL1201862, “PubChem BioAssay data set” (2004).

Test systems include RPMI-8226; HCT-15; MOLT-4; Malme-3M; SF-539; RXF 393; HCT-116; LOX IMVI; U-251; OVCAR-4; K562; UACC-62; CCRF-CEM; 786-0; IGROV-1; CAKI-1; NCI-H23.
Experiment in all cases: NCI anticancer screen, dose series, 48 h

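These data come from cells grown in 96-well plates and exposed to compound for 48 hours at five concentrations. GI50 = concentration required for 50% inhibition of growth.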 The source made the active and inactive calls. Cut-off read from the data, not from the text of the source: active = GI50 up to about 1.1 µM and inactive = higher.

Regarding `CCOC(=O)NC(=O)c1cn(CCCCCOC(=O)NCCCCCCNC(=O)OCCCCCn2cc(C(=O)NC(=O)OCC)c(=O)[nH]c2=O)c(=O)[nH]c1=O`, the GI50 with RPMI-8226 is > 100 µM (inactive); in the test on HCT-15, more than 100 µM; in the test with MOLT-4 it was > 100 µM (inactive); in the test on Malme-3M, > 100 µM (inactive); in the test with SF-539 it was > 100 µM (inactive); with RXF 393, > 100 µM (inactive). For the same compound, the GI50 with HCT-116, with LOX IMVI, with U-251, in the test with OVCAR-4, with K562 and in the test on UACC-62 was > 100 µM (inactive) each time. For the same compound, the GI50 in the test on CCRF-CEM, in the test with 786-0, in the test with IGROV-1 and in the test on CAKI-1 was > 100 µM (inactive) in each case.
For the compound `O=C(N/N=C/c1ccccc1O)N/N=C/c1ccccc1O`, the GI50 is > 100 µM (inactive) with RPMI-8226; more than 100 µM in the test with HCT-15; > 100 µM (inactive) in the test with MOLT-4; > 100 µM (inactive) with Malme-3M; > 100 µM (inactive) in the test with SF-539; > 100 µM (inactive) in the test with RXF 393. The GI50 in the test with HCT-116, in the test on NCI-H23, with LOX IMVI, in the test on U-251, in the test on OVCAR-4 and with K562 was > 100 µM (inactive) each time. Further, the GI50 with UACC-62, in the test with CCRF-CEM, with 786-0 and in the test on IGROV-1 was > 100 µM (inactive) in each case.
Regarding `O=C1c2ccccc2C(=O)C2C1C1C(=O)c3ccccc3C(=O)C21` (centres undefined), the GI50 in the test with HCT-15 is 8.69 µM; with Malme-3M it was 55.1 µM (inactive); with SF-539, > 100 µM (inactive); in the test on RXF 393, > 100 µM (inactive); in the test with NCI-H23, 99.1 µM (inactive); with LOX IMVI, 33.3 µM (inactive). For the same compound, the GI50 in the test on U-251, with OVCAR-4, in the test with K562, with UACC-62, in the test with CCRF-CEM and with 786-0 was > 100 µM (inactive) throughout. For the same compound, the GI50 is 79.1 µM (inactive) in the test with IGROV-1 and > 100 µM (inactive) in the test on CAKI-1.
Consider `CN1C(=O)CC2(C)c3cc(C=O)ccc3N(C)C12` (centres undefined), for which the GI50 with HCT-15 is more than 100 µM; with MOLT-4, > 100 µM (inactive); with Malme-3M it was > 100 µM (inactive); in the test with SF-539 it was > 100 µM (inactive); in the test with RXF 393 it was > 100 µM (inactive); in the test with HCT-116, > 100 µM (inactive). The GI50 in the test on NCI-H23, with LOX IMVI, with U-251, in the test on OVCAR-4, with K562 and in the test with UACC-62 was > 100 µM (inactive) throughout. For the same compound, the GI50 in the test with CCRF-CEM, in the test with 786-0 and in the test with IGROV-1 was > 100 µM (inactive) throughout.
Take `O=c1[nH]c2c(O)cccc2c2cc3c(c(O)c12)OCO3` [NARCIPRIMINE]: the GI50 was 25 µM (inactive) in the test with RPMI-8226; 22.5 µM in the test on HCT-15; 16.8 µM (inactive) with MOLT-4; 22.8 µM (inactive) in the test with Malme-3M; 18 µM (inactive) in the test on SF-539; 13.8 µM (inactive) in the test with HCT-116. In addition, the GI50 in the test on LOX IMVI is 11 µM (inactive); in the test with U-251, 16 µM (inactive); with OVCAR-4 it was 11.9 µM (inactive); in the test with K562, 17.5 µM (inactive); in the test with UACC-62 it was 18.3 µM (inactive); in the test on CCRF-CEM it was 10 µM (inactive). Moreover, the values for the GI50 with 786-0, in the test on IGROV-1 and in the test on CAKI-1 were 25.5 µM (inactive), 26.1 µM (inactive) and 20.9 µM (inactive), respectively.
For the compound `C[C@]12CC[C@H](OC3CCCCO3)CC1=CC[C@@H]1C2CC[C@]2(C)/C(=N/O)CCC12` (some centres undefined), the GI50 in the test on RPMI-8226 is 10.6 µM (inactive); with HCT-15 it was 14.5 µM; with MOLT-4, 10.9 µM (inactive); with Malme-3M it was 17.9 µM (inactive); with SF-539, 47.1 µM (inactive); with RXF 393, 23.2 µM (inactive). Besides, the GI50 is 16.1 µM (inactive) in the test on HCT-116; 19.9 µM (inactive) in the test on NCI-H23; 13.8 µM (inactive) with LOX IMVI; 19.6 µM (inactive) with U-251; 16.4 µM (inactive) in the test with OVCAR-4; 14.4 µM (inactive) in the test on K562. Further, the GI50 in the test with UACC-62 was 42.7 µM (inactive); in the test with 786-0 it was 20.4 µM (inactive); with IGROV-1, > 100 µM (inactive); in the test with CAKI-1, 40.6 µM (inactive).
Consider `CN1Nc2ccccc2CC1=O`, for which the GI50 in the test on RPMI-8226 is > 100 µM (inactive); with HCT-15, more than 100 µM; in the test on Malme-3M, > 100 µM (inactive); in the test on SF-539, > 100 µM (inactive); with HCT-116, > 100 µM (inactive); with NCI-H23, > 100 µM (inactive). The GI50 in the test with LOX IMVI, in the test on U-251, in the test with OVCAR-4, in the test on K562, with UACC-62 and in the test with CCRF-CEM was > 100 µM (inactive) in each case. Moreover, the GI50 in the test with 786-0, with IGROV-1 and in the test on CAKI-1 was > 100 µM (inactive) each time.
As for `Cc1nc2nn(Cc3ccccc3)cc2c(=O)o1`, the GI50 is > 100 µM (inactive) in the test with RPMI-8226; more than 100 µM in the test on HCT-15; > 100 µM (inactive) in the test with MOLT-4; > 100 µM (inactive) in the test on Malme-3M; > 100 µM (inactive) with SF-539; 44 µM (inactive) in the test with RXF 393. Also, the GI50 in the test on HCT-116, in the test on LOX IMVI, with U-251, in the test on K562, in the test on UACC-62 and in the test on CCRF-CEM was > 100 µM (inactive) each time. Moreover, the GI50 in the test on 786-0 and in the test on IGROV-1 was > 100 µM (inactive) in each case.
As for `Cc1ccc(S(=O)(=O)NNC(=O)c2sc(-c3nc(C)c(C(=O)NNS(=O)(=O)c4ccc(C)cc4)s3)nc2C)cc1`, the GI50 in the test on RPMI-8226 was 45.3 µM (inactive); with HCT-15, 47.1 µM; in the test with MOLT-4, 42.4 µM (inactive); in the test on Malme-3M it was > 100 µM (inactive); in the test with SF-539 it was > 100 µM (inactive); in the test with RXF 393, > 100 µM (inactive). Further, the GI50 with HCT-116 was 84.5 µM (inactive); in the test with NCI-H23 it was > 100 µM (inactive); in the test with LOX IMVI, > 100 µM (inactive); in the test with U-251, > 100 µM (inactive); in the test on K562 it was 45.9 µM (inactive); in the test with UACC-62 it was 72.3 µM (inactive). Also, the GI50 in the test on CCRF-CEM is 45.6 µM (inactive); with 786-0, 69.7 µM (inactive); in the test on IGROV-1, > 100 µM (inactive); with CAKI-1 it was 24 µM (inactive).
With `Cc1cc2c(c(C(N)=O)c1C)-c1cccc(F)c1C2=O`, the GI50 in the test with RPMI-8226 was > 100 µM (inactive); in the test with HCT-15 it was more than 100 µM; in the test on MOLT-4, > 100 µM (inactive); in the test on Malme-3M, > 100 µM (inactive); in the test with SF-539, > 100 µM (inactive); in the test with HCT-116, 80.2 µM (inactive). For the same compound, the GI50 was > 100 µM (inactive) with NCI-H23; > 100 µM (inactive) in the test with LOX IMVI; > 100 µM (inactive) with U-251; > 100 µM (inactive) with OVCAR-4; > 100 µM (inactive) in the test with K562; 79.6 µM (inactive) with UACC-62. The GI50 with CCRF-CEM, in the test with 786-0 and in the test on IGROV-1 was > 100 µM (inactive) throughout.
Regarding `COC(=O)C1CCC(N2C(=O)CCC2C(=O)OC)=N1` (centres undefined), the GI50 in the test on RPMI-8226 is > 100 µM (inactive); in the test on HCT-15 it was more than 100 µM; in the test with MOLT-4, > 100 µM (inactive); with Malme-3M, > 100 µM (inactive); in the test with HCT-116, > 100 µM (inactive); in the test on NCI-H23, > 100 µM (inactive). In addition, the GI50 with LOX IMVI, in the test with U-251, in the test on OVCAR-4, in the test with K562, with UACC-62 and with CCRF-CEM was > 100 µM (inactive) throughout. Further, the GI50 with 786-0, in the test with IGROV-1 and in the test on CAKI-1 was > 100 µM (inactive) in each case.
`O=c1cc(/C=C/c2ccccc2)c2ccc(O/C(=C\c3ccccc3)c3nc4ccccc4c(=O)o3)cc2o1`: the GI50 with RPMI-8226 is 4.76 µM (inactive); in the test with HCT-15 it was 30.3 µM; with MOLT-4, 17.6 µM (inactive); with Malme-3M it was 31.3 µM (inactive); with SF-539 it was 23.3 µM (inactive); in the test on HCT-116, 14.2 µM (inactive). In addition, the GI50 with NCI-H23 is 10.6 µM (inactive); with LOX IMVI, 31.1 µM (inactive); with U-251, 23 µM (inactive); with OVCAR-4 it was 27.2 µM (inactive); in the test on K562, 10.8 µM (inactive); in the test with UACC-62, 24.7 µM (inactive). For the same compound, the GI50 in the test on CCRF-CEM is 16.9 µM (inactive); with 786-0, 44.3 µM (inactive); in the test on IGROV-1 it was 30.1 µM (inactive); in the test on CAKI-1, 25.7 µM (inactive).
Turning to `CC(=O)OCC1OC(n2c(-c3ccc(C)cc3)cc(-c3ccccc3)c(C#N)c2=O)C(OC(C)=O)C(OC(C)=O)C1OC(C)=O` (centres undefined), the GI50 with RPMI-8226 was 67.1 µM (inactive); with HCT-15, more than 100 µM; with MOLT-4, > 100 µM (inactive); in the test with Malme-3M, > 100 µM (inactive); in the test on SF-539, > 100 µM (inactive); with HCT-116 it was > 100 µM (inactive). Besides, the GI50 with NCI-H23 is 60.7 µM (inactive); in the test with LOX IMVI it was > 100 µM (inactive); in the test on U-251, > 100 µM (inactive); in the test on OVCAR-4 it was > 100 µM (inactive); with K562, > 100 µM (inactive); in the test with UACC-62, > 100 µM (inactive). In addition, the GI50 with CCRF-CEM, in the test with 786-0, in the test on IGROV-1 and with CAKI-1 was > 100 µM (inactive) each time.
